# Test results published in patent publication US4663458A, “Water soluble salt composition of m-AMSA” (Bristol-Myers Company, priority 1985, dated 1987).
# Where a name gives a salt, the structure may show the parent alone.
# How the values were obtained:
# [1] = prior art; cited from earlier work
# [2] = system: animal tumor systems; conditions: Cain et al., Europ. J. Cancer 10:539-549 (1974); cited from earlier work
# [3] = Storage stability / precipitation of m-AMSA lactate aqueous solutions
# [4] = Aqueous solubility of m-AMSA base and salts
smiles,measurement,setting,value
"COc1cc(NS(C)(=O)=O)ccc1Nc1c2ccccc2nc2ccccc12 [m-AMSA, 4'9-(acridinylamino) methanesulfon-m-anisidide]",solubility in water,[1],very limited solubility in water
same,antitumor activity,[2],significant antitumor activity
COc1cc(NS(C)(=O)=O)ccc1Nc1c2ccccc2nc2ccccc12 [monohydrochloride],solubility in water,[1],insufficiently water-soluble
COc1cc(NS(C)(=O)=O)ccc1Nc1c2ccccc2nc2ccccc12 [m-AMSA L(+)-lactate monohydrate salt],stability,[3]; for use as an intravenous drug,the stability necessary for use as an intravenous drug
same,reconstitution rates,[4],excellent
same,solubility,[4]; water,~2500 µg/mL
COc1cc(NS(C)(=O)=O)ccc1Nc1c2ccccc2nc2ccccc12 [m-AMSA lactate salts],precipitation under extended storage,"[3]; concentrations as high as 5 mg/ml, extended storage at 24° C.",can result in precipitates
COc1cc(NS(C)(=O)=O)ccc1Nc1c2ccccc2nc2ccccc12 [monomethanesulfonate],solubility in water,[1],insufficiently water-soluble
